According to BigSolDB 2.1:

Cc1nc2n(c(=O)c1CCN1CCC(c3noc4cc(F)ccc34)CC1)CCCC2
solubility (mole fraction)
Settings	in ethanol	in methanol	in water
283.15 K	0.00105	0.00239	4.63e-08
283.16 K	0.00104	0.00239	4.63e-08
288.15 K	0.00138	0.00294	6.24e-08
288.16 K	0.00138	0.00294	6.24e-08
293.15 K	0.0017	0.00363	8.15e-08
293.16 K	0.0017	0.00363	8.15e-08
298.15 K	0.00216	0.00443	1.08e-07
298.16 K	–	0.00443	1.08e-07
303.15 K	0.00272	0.00546	1.38e-07
303.16 K	–	0.00546	1.38e-07
308.15 K	0.0035	0.00673	1.83e-07
308.16 K	–	0.00674	1.83e-07
313.15 K	0.00438	0.0083	2.38e-07
313.16 K	–	0.0083	2.38e-07
318.15 K	–	0.0101	2.91e-07
318.16 K	–	0.0101	2.91e-07
323.15 K	–	0.0121	3.81e-07
323.16 K	–	0.0121	3.81e-07
328.15 K	–	0.0148	4.79e-07
328.16 K	–	0.0148	4.79e-07
